Blank lines part the entries; values can stand above or below the molecule they belong to.
Columns and labels:
[1] = Solid stability test (long-term and accelerated lofting); type: physicochemical
Text: Each sample was separately put into a double-layer LDPE bag with each layer of LDPE bag sealed by a binding buckle. The bag was then put into an aluminum foil bag for heat sealing, and then put into a stability box under corresponding conditions for observation.

[2] = Hygroscopicity by dynamic vapor sorption (DVS); type: physicochemical
Text: SMS DVS intrinsic dynamic vapor sorption instrument

MNK2 (h) protein kinase = target: T1, MNK2 (h) protein kinase (Homo sapiens, UniProt Q9HBH9); assay: Inhibitory activity against MNK2 protein kinase (KinaseProfiler, 33P-ATP filter-binding); type: biochemical; settings: myelin basic protein substrate, 40 min at room temperature
T1 construct: purchased Eurofins Pharma Discovery Services UK Limited (KinaseProfiler service)
T1 sequence (Q9HBH9 whole entry): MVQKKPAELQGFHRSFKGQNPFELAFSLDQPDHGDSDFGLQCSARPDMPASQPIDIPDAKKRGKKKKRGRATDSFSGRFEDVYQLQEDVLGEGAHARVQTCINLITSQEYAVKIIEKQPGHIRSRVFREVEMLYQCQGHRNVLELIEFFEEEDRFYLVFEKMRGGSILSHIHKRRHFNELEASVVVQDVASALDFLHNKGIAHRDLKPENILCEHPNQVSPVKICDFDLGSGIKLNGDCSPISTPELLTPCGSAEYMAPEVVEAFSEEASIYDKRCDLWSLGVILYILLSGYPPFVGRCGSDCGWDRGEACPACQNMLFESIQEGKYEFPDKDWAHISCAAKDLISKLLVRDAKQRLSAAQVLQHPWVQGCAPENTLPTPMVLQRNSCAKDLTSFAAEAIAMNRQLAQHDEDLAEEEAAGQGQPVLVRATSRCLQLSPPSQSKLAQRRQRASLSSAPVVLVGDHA
Method: Purpose of experiment: to test the inhibitory activity of the compound against MNK2 protein kinase Experimental materials: assay buffer: 8 mM 3-(N-morpholino)propanesulfonic acid, 0.2 mM disodium ethylenediaminetetraacetate, 0.01% polyoxyethylene lauryl ether, 5% glycerol, 0.1% β-mercaptoethanol and 1 mg of bovine serum albumin
Experimental operation: Mnk2 protein kinase inhibitory activity assays were performed using the KinaseProfiler™ service from Eurofins Pharma Discovery Services UK Limited. Serially diluted DMSO solutions containing the compound to be tested (3-fold serial dilution, starting from 10 μM), MNK2 (h) protein kinase and 0.33 mg/mL myelin basic protein were added to a freshly prepared buffer (pH=7.0), and then stirred homogeneously. The reaction was initiated by adding a mixture of ^33P-ATP (intensity of radioactivity: 10 μCi/μL) and 10 mM magnesium acetate. After the resulting mixture was reacted at room temperature for 40 min, the reaction was terminated by adding phosphoric acid to dilute to a concentration of 0.5%. […] After drying, the intensity of radioactivity was determined using the Filter-Binding method.
The protein kinase inhibitory activity of the compound was expressed as a percentage of the residual protein kinase activity relative to the blank substrate (DMSO alone). […]

[3] = Crystal form screening / stability in different solvents; type: physicochemical; settings: stirred at 50° C. for 3 h, XRPD
Method: About 50 mg of the compound of formula (II) was weighed out separately and dissolved in different solvents, the mixtures were stirred at 50° C. for 3 h. The reaction liquids were cooled to room temperature, filtered for collection, and dried in vacuum, and the obtained solids were tested by XRPD.

Crystal form ([1]; 25° C./60% RH, 12 months): Crystal form A | Crystal form ([1]; 25° C./60% RH, Day 0): Crystal form A | Crystal form ([1]; 40° C./75% RH, 6 months): Crystal form A | Crystal form ([1]; 40° C./75% RH, Day 0): Crystal form A | hygroscopic weight gain ΔW ([2]; 25° C. and 80% RH, DVS): 1.179% | hygroscopicity (in words) ([2]; 25° C. and 80% RH, DVS): relatively weak hygroscopicity | crystal form before and after the hygroscopic test ([2]; DVS 0%~95%~0% RH, 25° C.): not changed
SMILES: Cc1cc(Nc2ncnn3cc(OCCN4CCC(F)(F)C4)c(C)c23)c(=O)n2c1C(=O)NC21CCCC1

IC50 (MNK2 (h) protein kinase): 17 nM
SMILES: Cc1cc(Nc2ncnn3cc(OCCN4CCC(F)(F)C4)c(C)c23)c(=O)n2c1C(=O)NC21CCCC1 [Compound of formula (I)]

Crystal form ([3]; Acetonitrile): Crystal form A | Crystal form ([3]; Ethanol): Crystal form B | Crystal form ([3]; Methanol): Crystal form A | Crystal form ([3]; n-Heptane): Crystal form B | Crystal form ([3]; tert-Butyl methyl ether): Crystal form A
SMILES: Cc1cc(Nc2ncnn3cc(OCCN4CCC(F)(F)C4)c(C)c23)c(=O)n2c1C(=O)NC21CCCC1 [compound of formula (II)]
